PubChem BioAssay (NCI)
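Grown in 96-well plates, cells were treated for 48 hours with each compound at five concentrations. Insufficient inhibition: endpoint recorded as highest concentration tested. TGI is the concentration that stops growth completely.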

Assays:
Experiment in all cases: NCI-60 cell line screen, 48 h
[1] = system: 786-0 renal
[2] = system: A498 renal
[3] = system: A549 NSCLC
[4] = system: BT-549 breast
[5] = system: CAKI-1 renal
[6] = system: CCRF-CEM leukemia
[7] = system: COLO 205 colon
[8] = system: DU-145 prostate
[9] = system: EKVX NSCLC
[10] = system: HCC-2998 colon
[11] = system: HCT-116 colon
[12] = system: HCT-15 colon
[13] = system: HOP-62 NSCLC
[14] = system: HOP-92 NSCLC
[15] = system: HT29 colon
[16] = system: IGROV1 ovarian
[17] = system: KM12 colon
[18] = system: LOX IMVI melanoma
[19] = system: M14 melanoma
[20] = system: MALME-3M melanoma
[21] = system: MCF7 breast
[22] = system: MDA-MB-231 breast
[23] = system: MDA-MB-435
[24] = system: MDA-N
[25] = system: MOLT-4 leukemia
[26] = system: NCI-H226 lung
[27] = system: NCI-H23 lung
[28] = system: NCI-H522 lung
[29] = system: NCI/ADR-RES ovarian
[30] = system: OVCAR-3 ovarian
[31] = system: OVCAR-5 ovarian
[32] = system: OVCAR-8 ovarian
[33] = system: PC-3 prostate
[34] = system: RPMI-8226 leukemia
[35] = system: SF-268 CNS
[36] = system: SF-295 CNS
[37] = system: SF-539 CNS
[38] = system: SK-MEL-2 melanoma
[39] = system: SK-MEL-5 melanoma
[40] = system: SK-OV-3 ovarian
[41] = system: SN12C renal
[42] = system: SR leukemia
[43] = system: SW-620 colon
[44] = system: T-47D breast
[45] = system: TK-10 renal
[46] = system: U251 CNS
[47] = system: UACC-257 melanoma
[48] = system: UACC-62 melanoma
[49] = system: UO-31 renal
[50] = system: ACHN renal
[51] = system: HL-60(TB) leukemia
[52] = system: HS 578T breast
[53] = system: NCI-H460 lung
[54] = system: OVCAR-4 ovarian
[55] = system: RXF 393 renal
[56] = system: SK-MEL-28 melanoma
[57] = system: SNB-19 CNS
[58] = system: SNB-75 CNS
[59] = system: K-562 leukemia

With `COc1ccc2c(c1)CC1COc3cc(OC)ccc3C1O2` (stereo unspecified) the TGI [1] was > 100 µM, the TGI [2] was > 100 µM and the TGI [3] was > 100 µM. For the same molecule, the TGI [4] was > 100 µM, the TGI [5] was > 100 µM and the TGI [6] was > 100 µM. For the same molecule, the TGI [7] was > 100 µM, the TGI [8] was > 100 µM and the TGI [9] was > 100 µM. The TGI [10] was > 100 µM, the TGI [11] was > 100 µM and the TGI [12] was > 100 µM. For the same molecule, the TGI [13] was > 100 µM, the TGI [14] was > 100 µM and the TGI [15] was > 100 µM. The TGI [16] was > 100 µM, the TGI [17] was > 100 µM and the TGI [18] was > 100 µM. For the same molecule, the TGI [19] was > 100 µM, the TGI [20] was > 100 µM and the TGI [21] was > 100 µM. The TGI [22] was > 100 µM, the TGI [23] was > 100 µM and the TGI [24] was > 100 µM. The TGI [25] was > 100 µM, the TGI [26] was > 100 µM and the TGI [27] was > 100 µM. For the same molecule, the TGI [28] was > 100 µM, the TGI [29] was > 100 µM and the TGI [30] was > 100 µM. The TGI [31] was > 100 µM, the TGI [32] was > 100 µM and the TGI [33] was > 100 µM. For the same molecule, the TGI [34] was > 100 µM, the TGI [35] was > 100 µM and the TGI [36] was > 100 µM. For the same molecule, the TGI [37] was > 100 µM, the TGI [38] was > 100 µM and the TGI [39] was > 100 µM. The TGI [40] was > 100 µM, the TGI [41] was > 100 µM and the TGI [42] was > 100 µM. The TGI [43] was > 100 µM, the TGI [44] was > 100 µM and the TGI [45] was > 100 µM. For the same molecule, the TGI [46] was > 100 µM, the TGI [47] was > 100 µM and the TGI [48] was > 100 µM. For the same molecule, the TGI [49] was > 100 µM.

With `CCOC(=O)/C(=C\NC(C)(C)C)c1nc2ccccc2[nH]1` the TGI [1] was 72 µM, the TGI [2] was 57.3 µM and the TGI [3] was > 100 µM. For the same molecule, the TGI [50] was 40.9 µM, the TGI [4] was 68.3 µM and the TGI [5] was 96.2 µM. For the same molecule, the TGI [6] was 39.5 µM, the TGI [7] was 33.7 µM and the TGI [8] was > 100 µM. For the same molecule, the TGI [9] was 34.5 µM, the TGI [11] was 95.2 µM and the TGI [12] was > 100 µM. The TGI [51] was 34 µM, the TGI [13] was 58.5 µM and the TGI [14] was 56.8 µM. For the same molecule, the TGI [52] was 45.8 µM, the TGI [15] was 42.6 µM and the TGI [16] was 69.4 µM. For the same molecule, the TGI [17] was 44.1 µM, the TGI [18] was 44.6 µM and the TGI [19] was 39.7 µM. For the same molecule, the TGI [20] was 39.4 µM, the TGI [21] was 43.5 µM and the TGI [23] was 38.6 µM. The TGI [24] was 52.8 µM, the TGI [26] was 47 µM and the TGI [27] was 35.9 µM. For the same molecule, the TGI [53] was 37.3 µM, the TGI [28] was 45.9 µM and the TGI [29] was 92.1 µM. For the same molecule, the TGI [30] was 35 µM, the TGI [54] was 59.6 µM and the TGI [31] was 55.9 µM. For the same molecule, the TGI [32] was 64.2 µM, the TGI [34] was 39.2 µM and the TGI [55] was 59.6 µM. For the same molecule, the TGI [35] was 55.9 µM, the TGI [36] was 41.2 µM and the TGI [37] was 39.4 µM. The TGI [56] was 34.6 µM, the TGI [39] was 25.5 µM and the TGI [40] was 78.8 µM. The TGI [41] was 75.6 µM, the TGI [57] was > 100 µM and the TGI [58] was 68.7 µM. For the same molecule, the TGI [42] was 28.3 µM, the TGI [43] was 93 µM and the TGI [45] was 47.6 µM. It also gave a TGI [47] of 35.2 µM, a TGI [48] of 30.1 µM and a TGI [49] of 41.3 µM.

For `CC(=O)Nc1ccc2c3c(cc(O)c2c1)N(C(=O)CCCCC(=O)N1CC(CCl)c2c1cc(O)c1cc(NC(C)=O)ccc21)CC3CCl` (stereo unspecified), the TGI [1] was 0.992 µM, the TGI [2] was 0.39 µM and the TGI [50] was 1.49 µM. The TGI [4] was 2.31 µM, the TGI [5] was 18.1 µM and the TGI [7] was 0.376 µM. For the same molecule, the TGI [8] was 0.209 µM, the TGI [9] was 12.8 µM and the TGI [10] was 0.443 µM. For the same molecule, the TGI [11] was > 100 µM, the TGI [12] was > 70.6 µM and the TGI [51] was 4.39 µM. For the same molecule, the TGI [13] was 8.78 µM, the TGI [15] was > 30.4 µM and the TGI [59] was > 100 µM. For the same molecule, the TGI [17] was 14 µM, the TGI [18] was > 100 µM and the TGI [19] was 1.16 µM. For the same molecule, the TGI [20] was 0.575 µM, the TGI [21] was 0.264 µM and the TGI [22] was 0.733 µM. It also gave a TGI [23] of 0.71 µM, a TGI [24] of 0.566 µM and a TGI [25] of 0.0176 µM. The TGI [26] was 0.763 µM, the TGI [27] was 0.744 µM and the TGI [28] was 0.545 µM. The TGI [29] was > 100 µM, the TGI [54] was > 27.7 µM and the TGI [31] was 8.54 µM. For the same molecule, the TGI [32] was > 32.4 µM, the TGI [33] was > 33.7 µM and the TGI [34] was 0.635 µM. For the same molecule, the TGI [55] was 0.41 µM, the TGI [35] was 2.77 µM and the TGI [36] was > 24.1 µM. For the same molecule, the TGI [37] was 1.34 µM, the TGI [38] was 0.316 µM and the TGI [56] was > 33.3 µM. The TGI [39] was 0.391 µM, the TGI [40] was > 64.5 µM and the TGI [41] was 6.4 µM. For the same molecule, the TGI [57] was 5.02 µM, the TGI [58] was 0.297 µM and the TGI [42] was 0.0278 µM. The TGI [43] was > 100 µM, the TGI [44] was 0.0973 µM and the TGI [45] was 11.9 µM. For the same molecule, the TGI [48] was 0.22 µM and the TGI [49] was > 44.6 µM.

`O=C1C2=Cc3ccccc3OC2(O)Oc2ccccc21` (stereo unspecified) was tested, and the TGI [1] was > 100 µM, the TGI [2] was > 100 µM and the TGI [3] was > 100 µM. For the same molecule, the TGI [5] was > 100 µM, the TGI [6] was > 100 µM and the TGI [7] was > 100 µM. For the same molecule, the TGI [8] was > 100 µM, the TGI [9] was > 100 µM and the TGI [10] was > 100 µM. The TGI [11] was > 100 µM, the TGI [12] was > 100 µM and the TGI [13] was > 100 µM. The TGI [14] was > 100 µM, the TGI [15] was > 100 µM and the TGI [16] was > 100 µM. For the same molecule, the TGI [59] was > 100 µM, the TGI [17] was > 100 µM and the TGI [18] was > 100 µM. The TGI [19] was > 100 µM, the TGI [20] was > 100 µM and the TGI [21] was > 100 µM. The TGI [22] was > 100 µM, the TGI [23] was > 100 µM and the TGI [24] was > 100 µM. The TGI [25] was > 100 µM, the TGI [26] was > 100 µM and the TGI [27] was > 100 µM. For the same molecule, the TGI [29] was > 100 µM, the TGI [30] was > 100 µM and the TGI [54] was > 100 µM. For the same molecule, the TGI [31] was > 100 µM, the TGI [32] was > 100 µM and the TGI [33] was > 100 µM. For the same molecule, the TGI [34] was > 100 µM, the TGI [55] was > 100 µM and the TGI [35] was > 100 µM. The TGI [36] was > 100 µM, the TGI [37] was > 100 µM and the TGI [38] was > 100 µM. The TGI [56] was > 100 µM, the TGI [39] was > 100 µM and the TGI [40] was > 100 µM. For the same molecule, the TGI [41] was > 100 µM, the TGI [58] was > 100 µM and the TGI [42] was > 100 µM. For the same molecule, the TGI [43] was > 100 µM, the TGI [44] was > 100 µM and the TGI [45] was > 100 µM. The TGI [46] was > 100 µM, the TGI [47] was > 100 µM and the TGI [48] was > 100 µM.
